Test [1] deals with T1, GCGR (Homo sapiens, UniProt P47871). Description: GCGR cAMP accumulation, antagonist mode, native and biotinylated peptides. The test is classed as cell-based. The following applies: HTRF, HEK Freestyle cells, arithmetic mean, n=3. The protocol: HEK Freestyle cells (ThermoFisher Scientific, #R79007) seeded in suspension at a density of 250,000 cells/mL were transiently transfected with indicated receptor constructs using Fugene-6 reagent (Promega, #E2691). After 48 h, cells were pelleted and resuspended in assay buffer (DMEM, #Gibco 31053) containing 0.1% casein. Cells were then added at 1000 cells/well to 384-well white microplates (Costar, #3570) containing a range of agonist concentrations prepared via acoustic direct dilution in assay buffer containing 250 μM IBMX (total reaction volume of 20 μL), followed by incubation at 37 °C for 30 min. Cells were then lysed via sequential addition of d2-labeled cAMP competitor conjugate and cryptate-conjugated detection antibody (Revity, #62AM4PEC), then incubated for 1 h at room temperature with subsequent quantification of time-resolved fluorescence resonance energy transfer using an Envision plate reader and calibration to external synthetic cAMP standards in a parallel processed plate. Normalized percent values were fit to the 4-parameter logistic model using GraphPad Prism 10.1.2.
T1 sequence (P47871 26-477): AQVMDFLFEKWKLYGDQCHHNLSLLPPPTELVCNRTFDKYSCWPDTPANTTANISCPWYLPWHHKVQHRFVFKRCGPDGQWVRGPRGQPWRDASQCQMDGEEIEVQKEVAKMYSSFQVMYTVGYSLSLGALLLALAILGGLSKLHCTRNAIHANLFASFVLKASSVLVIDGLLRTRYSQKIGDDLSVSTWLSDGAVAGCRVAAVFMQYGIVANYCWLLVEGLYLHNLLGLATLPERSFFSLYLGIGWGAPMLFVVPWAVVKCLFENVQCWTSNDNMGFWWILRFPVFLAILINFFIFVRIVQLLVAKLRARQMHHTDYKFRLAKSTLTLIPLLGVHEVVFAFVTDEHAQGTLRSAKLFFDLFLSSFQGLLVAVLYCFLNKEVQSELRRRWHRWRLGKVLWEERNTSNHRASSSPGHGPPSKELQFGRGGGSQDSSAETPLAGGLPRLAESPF
Figure S1. Enrichment of GCGR using biotinylated peptide ligands and bottom-up proteomic analysis of C-tail phosphorylation. A-B) GCGR cAMP accumulation was measured in (A) agonist mode and (B) antagonist mode using native and biotinylated peptides. Summary statistics for pharmacological […]
(cAMP levels reflect the balance of adenylyl cyclase and phosphodiesterase activity.)

Test [2] has as its target T1, GCGR. As to the kind of experiment: GCGR cAMP accumulation, agonist mode, native and biotinylated peptides. The following applies: read-out: cAMP Emax Mean. The test is classed as cell-based.
Experimental: Figure S1. […] A-B) GCGR cAMP accumulation was measured in (A) agonist mode and (B) antagonist mode using native and biotinylated peptides.
A further test has as its target GLP-1R S445A (Homo sapiens, UniProt P43220, S445A). As to the kind of experiment: cell-based. The following applies: read-out: cAMP Emax Mean. The protocol:
(§1) Transfection for pharmacology experiments was conducted as previously described using FuGENE 6 (Promega, #E2691). […] Subsequently, 240 μL of room-temperature FuGENE 6 (Promega, #E2691) was added to the medium, mixed by inversion, and allowed to rest at room temperature for 5 min. 40 μg of the plasmid of interest was added to the FuGENE 6 containing medium, mixed by inversion, and allowed to rest at room temperature for 15–20 min.
(§2) HEK Freestyle cells (ThermoFisher Scientific, #R79007) seeded in suspension at a density of 250,000 cells/mL were transiently transfected with indicated receptor constructs using Fugene-6 reagent (Promega, #E2691). […] Cells were then lysed via sequential addition of d2-labeled cAMP competitor conjugate and cryptate-conjugated detection antibody (Revity, #62AM4PEC), then incubated for 1 h at room temperature with subsequent quantification of time-resolved fluorescence resonance energy transfer using an Envision plate reader and calibration to external synthetic cAMP standards in a parallel processed plate.

The target of the next test is GLP-1R WT (Homo sapiens, UniProt P43220). As to the kind of experiment: cell-based. The following applies: read-out: cAMP Emax Mean. The protocol:
as §1, §2

In a further test the target is GLP-1R_TEV_FLAG C-tail (Homo sapiens, UniProt P43220). The following applies: WT GLP-1R_TEV C-tail; 1 μM ligand, 10 min 37 °C, FreeStyle 293 cells, LC-PRM, relative to DMSO.
Chain of GLP-1R_TEV_FLAG C-tail (P43220 24-431 limits assumed): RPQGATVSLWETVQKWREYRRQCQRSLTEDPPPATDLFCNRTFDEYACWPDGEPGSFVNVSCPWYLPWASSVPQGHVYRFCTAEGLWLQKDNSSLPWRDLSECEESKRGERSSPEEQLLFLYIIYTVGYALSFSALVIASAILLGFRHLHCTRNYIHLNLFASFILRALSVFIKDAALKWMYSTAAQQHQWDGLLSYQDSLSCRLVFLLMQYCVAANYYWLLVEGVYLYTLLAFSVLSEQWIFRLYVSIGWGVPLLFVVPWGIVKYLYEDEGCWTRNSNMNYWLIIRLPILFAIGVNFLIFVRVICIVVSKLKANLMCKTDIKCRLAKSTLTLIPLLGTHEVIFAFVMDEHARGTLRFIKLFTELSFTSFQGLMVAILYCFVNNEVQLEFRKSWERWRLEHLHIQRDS
For the next test, the target named is GLP-1R S442A (Homo sapiens, UniProt P43220, S442A). As to the kind of experiment: cell-based. The following applies: read-out: cAMP Emax Mean.
Chain of GLP-1R S442A (P43220 24-463 S442A): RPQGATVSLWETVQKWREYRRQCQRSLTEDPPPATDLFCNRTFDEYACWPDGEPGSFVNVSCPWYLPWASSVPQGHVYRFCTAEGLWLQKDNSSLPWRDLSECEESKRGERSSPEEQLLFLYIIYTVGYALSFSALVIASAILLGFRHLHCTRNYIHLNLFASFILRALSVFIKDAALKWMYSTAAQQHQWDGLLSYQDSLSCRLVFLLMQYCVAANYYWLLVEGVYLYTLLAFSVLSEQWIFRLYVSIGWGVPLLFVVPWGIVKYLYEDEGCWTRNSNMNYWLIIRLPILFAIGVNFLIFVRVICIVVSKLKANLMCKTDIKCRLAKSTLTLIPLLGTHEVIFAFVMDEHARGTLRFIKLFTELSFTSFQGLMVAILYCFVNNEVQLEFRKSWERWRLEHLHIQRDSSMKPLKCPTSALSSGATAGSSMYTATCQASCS
Another test concerns the target GLP-1R S444A (Homo sapiens, UniProt P43220, S444A). As to the kind of experiment: cell-based. The following applies: read-out: cAMP Emax Mean.
The target of test [3] is GLP-1R 3S→A (S442A/S444A/S445A) (Homo sapiens, UniProt P43220, S442A/S444A/S445A). Description: cell-based. The following applies: read-out: cAMP Emax Mean.
Chain of GLP-1R 3S→A (S442A/S444A/S445A) (P43220 24-463 S442A/S444A/S445A): as the sequence (P43220 24-463 S442A) above, with S421A, S422A counted along it

Numbered stars: 1 amine (or outer) side, 2 acyl side, 3 side chain; on linkers, the order of the positions; unused ones are H or OH. Square brackets hold non-standard residues; d marks the D form. Side chains are listed from the residue outwards. Peptide text beside a SMILES is read from it. * marks the point of attachment. Biotin = O=C1N[C@H]2[C@H](CS[C@H]2CCCCC(=O)*)N1; γGlu = O=C(O)[C@H](CCC(=O)[*:2])N[*:1]; Palmitoyl = CCCCCCCCCCCCCCCC(=O)*; PhLac = O=C(O)[C@@H](O)Cc1ccccc1; PEG4 = NCCOCCOCCOCCOCCC(=O)O

Chain of GLP-1R S445A (P43220 24-463 S445A): as the sequence (P43220 24-463 S442A) above, with A419S, S422A counted along it
Chain of GLP-1R WT (P43220 24-463): as the sequence (P43220 24-463 S442A) above, with A419S counted along it
Chain of GLP-1R S444A (P43220 24-463 S444A): as the sequence (P43220 24-463 S442A) above, with A419S, S421A counted along it

In general, Emax refers to the maximal effect, on the per cent scale that the assay sets. `CCCCCCCCCCCCCCCC(=O)N[C@@H](CCC(=O)N[C@@H](CCC(=O)NCCCC[C@H](NC(=O)[C@H](CC(=O)O)NC(=O)[C@H](CO)NC(=O)[C@@H](NC(=O)[C@@H](O)Cc1ccccc1)[C@@H](C)O)C(=O)N[C@@H](CO)C(=O)N[C@@H](CCCCN)C(=O)N[C@@H](Cc1ccc(O)cc1)C(=O)N[C@@H](CC(C)C)C(=O)N[C@@H](CC(=O)O)C(=O)N[C@@H](CO)C(=O)N[C@@H](CCCNC(=N)N)C(=O)N[C@@H](CCCNC(=N)N)C(=O)N[C@@H](C)C(=O)N[C@@H](CCC(N)=O)C(=O)N[C@@H](CC(=O)O)C(=O)N[C@@H](Cc1ccccc1)C(=O)N[C@H](C(=O)N[C@@H](CCC(N)=O)C(=O)N[C@@H](Cc1c[nH]c2ccccc12)C(=O)N[C@@H](CC(C)C)C(=O)N[C@@H](CCSC)C(=O)N[C@@H](CC(=O)O)C(=O)N[C@H](C(N)=O)[C@@H](C)O)C(C)C)C(=O)O)C(=O)O` [GCGR Antagonist] (H-[PhLac]TSDK([γGlu-γGlu-Palmitoyl])SKYLDSRRAQDFVQWLMDT-NH2) returned an Emax on GCGR [1] of 116%.

At GCGR [1], `CSCC[C@H](NC(=O)[C@H](CC(C)C)NC(=O)[C@H](Cc1c[nH]c2ccccc12)NC(=O)[C@H](CCC(N)=O)NC(=O)[C@@H](NC(=O)[C@H](Cc1ccccc1)NC(=O)[C@H](CC(=O)O)NC(=O)[C@H](CCC(N)=O)NC(=O)[C@H](C)NC(=O)[C@H](CCCNC(=N)N)NC(=O)[C@H](CCCNC(=N)N)NC(=O)[C@H](CO)NC(=O)[C@H](CC(=O)O)NC(=O)[C@H](CC(C)C)NC(=O)[C@H](Cc1ccc(O)cc1)NC(=O)[C@H](CCCCN)NC(=O)[C@H](CO)NC(=O)[C@H](CCCCNC(=O)CCOCCOCCOCCOCCNC(=O)CCCC[C@@H]1SC[C@@H]2NC(=O)N[C@@H]21)NC(=O)[C@H](CC(=O)O)NC(=O)[C@H](CO)NC(=O)[C@@H](NC(=O)[C@@H](O)Cc1ccccc1)[C@@H](C)O)C(C)C)C(=O)N[C@@H](CC(=O)O)C(=O)N[C@H](C(N)=O)[C@@H](C)O` [Biotin-GCGR antagonist] (H-[PhLac]TSDK([PEG4-Biotin])SKYLDSRRAQDFVQWLMDT-NH2) displayed an Emax of 120%.

`CC[C@H](C)[C@H](NC(=O)[C@H](Cc1ccccc1)NC(=O)[C@@H](NC(=O)CNC(=O)[C@H](CCC(N)=O)NC(=O)C(C)(C)NC(=O)[C@@H](N)Cc1c[nH]cn1)[C@@H](C)O)C(=O)N[C@@H](CO)C(=O)N[C@@H](CC(=O)O)C(=O)N[C@@H](CCCCNC(=O)CCOCCOCCOCCOCCNC(=O)CCCC[C@@H]1SC[C@@H]2NC(=O)N[C@@H]21)C(=O)N[C@@H](CO)C(=O)N[C@@H](CCCCN)C(=O)N[C@@H](Cc1ccc(O)cc1)C(=O)N[C@@H](CC(C)C)C(=O)N[C@@H](CC(=O)O)C(=O)NC(C)(C)C(=O)N[C@@H](CCCNC(=N)N)C(=O)N[C@@H](C)C(=O)N[C@@H](C)C(=O)N[C@@H](CCC(N)=O)C(=O)N[C@@H](CC(=O)O)C(=O)N[C@@H](Cc1ccccc1)C(=O)N[C@H](C(=O)N[C@@H](CCC(N)=O)C(=O)N[C@@H](Cc1c[nH]c2ccccc12)C(=O)N[C@@H](CC(C)C)C(=O)N[C@@H](CCSC)C(=O)N[C@@H](CC(=O)O)C(=O)N[C@H](C(=O)O)[C@@H](C)O)C(C)C` [Biotin-GCG]: on GCGR [2], the maximal response (Emax) is 124%.

On to `N#Cc1ccc(COc2cccc(C3CCN(Cc4nc5ccc(C(=O)O)cc5n4C[C@@H]4CCO4)CC3)n2)c(F)c1` [danuglipron], for which the Emax was 123% on GLP-1R S445A; 99% on GLP-1R WT; 116% on GLP-1R S442A; 127% at GLP-1R S444A; 130% in test [3]. Also, the “increase in the percentage of phosphorylated GLP-1R proteoforms” value at GLP-1R_TEV_FLAG C-tail came out at 14.5%.

Source of the values: article PMC12235690 (Journal of Proteome Research, 2025).
